According to patent US20250332112A1, “IONIZABLE CATIONIC LIPIDS FOR LIPID NANOPARTICLES” (GENEVANT SCIENCES GMBH, priority 2022, published 2025):

Experiments:
[1] = tested on: luciferase activity in the liver; test: Luciferase activity in liver after intravenous luciferase mRNA LNP; type: in vivo; conditions: 0.5 mg/kg IV, 6 h post-IV administration, BALB/c mice (n = 4)
[2] = Particle characteristics of LNPs containing luciferase mRNA and novel ionizable lipids; type: physicochemical; conditions: luciferase mRNA LNP 1.6:54.6:32.8:10.9
Method in brief: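 LNPs made from PEG-lipid, ionizable lipid, cholesterol and phospholipid in ethanol, T-mixed with luciferase mRNA in 100 mM acetate pH 5. Products were dialysed, concentrated, and dialysed into 5 mM Tris, 10% sucrose, pH 8, then 0.2 μm filtered. mRNA was measured by RiboGreen, and size and polydispersity by dynamic light scattering on a Zetasizer.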

[3] = Parent ionizable lipid remaining in liver at 6 h after luciferase mRNA LNP (LC-MS); type: in vivo; conditions: 6 h after IV 0.5 mg/kg Luciferase mRNA LNP
Experimental: Liver tissues were treated with PBS and homogenized with a FastPrep machine, 3 cycles of 5 m/s×15 s. Homogenates from the PBS-treated control animals was pooled and used for standard curve preparation. Samples were extracted into a deep well plate with 250 μL of an internal suitability standard. Plates were centrifuged for 15 min at 4° C. and 2000 rpm. Analysis was performed using an Agilent 6520 QTOF coupled to an Agilent 1290 UHPLC, using reverse-phase LC separation. Quantitation of the ionizable lipid was by MS/MS against a calibration curve spiked into appropriately matched blank matrix. Calibration used a similar class of synthetic lipid as internal standard.
At 6 h post-dose, some treatment groups reported lower levels of novel ionizable lipid in mouse liver compared to the benchmark (Tables 16-18).

[4] = Table 16, female BALB/c mice (n = 4)
[5] = Table 18, female BALB/c mice (n = 4)

**Q.** With `CCCCC/C=C\CCCC(CCC/C=C\CCCCC)=NNC(=O)CC(CCCCCCCCC)N(CCCN(C)C)C(=O)C(CCCCCC)CCCCCCCC` (centres unmarked) [Compound 57, N-(3-(dimethylamino)propyl)-N-(1-(2-((6Z,15Z)-henicosa-6,15-dien-11-ylidene)hydrazineyl)-1-oxododecan-3-yl)-2-hexyldecanamide] as the molecule, how does the “Luc Activity” value ([1]; Table 10) read?
**A.** 2.43E+06 pg/g liver

**Q.** What about the “Final Product % EE” value ([2]; Table 3) of the same molecule?
**A.** 80%

**Q.** What about the “Final Product PDI” value ([2]; Table 3) of the same molecule?
**A.** 0.03

**Q.** What about the “Final Product Z-avg” value ([2]; Table 3) of the same molecule?
**A.** 84 nm

**Q.** And the “Parent ionizable lipid remaining in liver, Average” value (shortened to “Parent ionizable lipid remaining”) [3, 4]?
**A.** 15.88 nmol/g liver

**Q.** For `CCCCC/C=C\CCCC(CCC/C=C\CCCCC)NNC(=O)CC(CCCCCCCCC)N(CCCN(C)C)C(=O)CCCCCCCCC` (centres unmarked) [Compound 59, N-(3-(Dimethylamino)propyl)-N-(1-(2-((6Z,15Z)-henicosa-6,15-dien-11-yl)hydrazineyl)-1-oxododecan-3-yl)decanamide], which “Luc Activity” value ([1]; Table 10) is on record?
**A.** 1.12E+06 pg/g liver

**Q.** What about the “Final Product % EE” value ([2]; Table 3) of the same molecule?
**A.** 99%

**Q.** And the “Final Product PDI” value ([2]; Table 3)?
**A.** 0.07

**Q.** And the “Final Product Z-avg” value ([2]; Table 3)?
**A.** 82 nm

**Q.** What about the “Parent ionizable lipid remaining” value [3, 4] of the same molecule?
**A.** 22.67 nmol/g liver

**Q.** Which “Luc Activity” value ([1]; Table 10) does the source give for `CCCCCCCCCCC(CCCCC(=O)OCc1cc(CCCCCC)cc(CCCCCC)c1)N(CCCN(C)C)C(=O)CCCCCCCCC` (centres unmarked) [Compound 60, (3,5-dihexylphenyl)methyl 6-{N-[3-(dimethylamino)propyl]decanamido}hexadecanoate] here?
**A.** 8.23E+06 pg/g liver

**Q.** What about the “Final Product % EE” value ([2]; Table 3) of the same molecule?
**A.** 99%

**Q.** What about the “Final Product PDI” value ([2]; Table 3) of the same molecule?
**A.** 0.05

**Q.** And the “Final Product Z-avg” value ([2]; Table 3)?
**A.** 73 nm

**Q.** What about the “Parent ionizable lipid remaining” value [3, 4] of the same molecule?
**A.** 35.39 nmol/g liver

**Q.** With `CCCCCCCCCCCCC(=O)N(CCCN(C)C)C(CCCCCCCCCC)CCCCC(=O)OCc1cc(CCCCCC)cc(CCCCCC)c1` (centres unmarked) [Compound 61, 3,5-Dihexylbenzyl 6-(N-(3-(dimethylamino)propyl)tridecanamido)hexadecanoate] as the molecule, how does the “Luc Activity” value ([1]; Table 10) read?
**A.** 2.45E+07 pg/g liver

**Q.** And the “Final Product % EE” value ([2]; Table 3)?
**A.** 99%

**Q.** And the “Final Product PDI” value ([2]; Table 3)?
**A.** 0.05

**Q.** And the “Final Product Z-avg” value ([2]; Table 3)?
**A.** 76 nm

**Q.** What about the “Parent ionizable lipid remaining” value [3, 4] of the same molecule?
**A.** 27.21 nmol/g liver

**Q.** With `CCCCCCCCCCC(CCCCC(=O)OCc1cc(CCCCCC)cc(CCCCCC)c1)N(CCCN(C)C)C(=O)C(CCCCCC)CCCCCCCC` (centres unmarked) [Compound 62, 3,5-Dihexylbenzyl 6-(N-(3-(dimethylamino)propyl)-2-hexyldecanamido)hexadecanoate] as the molecule, how does the “Luc Activity” value ([1]; Table 10) read?
**A.** 7.84E+06 pg/g liver

**Q.** And the “Final Product % EE” value ([2]; Table 3)?
**A.** 98%

**Q.** What about the “Final Product PDI” value ([2]; Table 3) of the same molecule?
**A.** 0.08

**Q.** What about the “Final Product Z-avg” value ([2]; Table 3) of the same molecule?
**A.** 67 nm

**Q.** And the “Parent ionizable lipid remaining” value [3, 4]?
**A.** 20.17 nmol/g liver

**Q.** What does the source list for `CCCCCCCCCCC(CCCCCCCC(=O)OCCC(CCCCC)CCCCC)N(CCCCCCCCC(=O)OCCC(CCCCC)CCCCC)C(=O)CCCCN(C)C` (centres unmarked) [Compound 65, 3-Pentyloctyl 9-(5-(dimethylamino)-N-(9-oxo-9-((3-pentyloctyl)oxy)nonyl)-pentanamido)-nonadecanoate]?
**A.** Luc Activity ([1]; Table 13): 3.88E+07 pg/g liver; Final Product % EE ([2]; Table 6): 98%; Final Product PDI ([2]; Table 6): 0.01; Final Product Z-avg ([2]; Table 6): 83 nm; Parent ionizable lipid remaining in liver, Average ([3]; Table 17, female mice (n = 4)): 27.84 nmol/g liver

**Q.** Which “Luc Activity” value ([1]; Table 13) does the source give for `CCCCCCCCCCC(CCCCCCCC(=O)OCC(CCCCCC)CCCCCCCC)N(CCCCCCCCC(=O)OCC(CCCCCC)CCCCCCCC)C(=O)CCCCN(C)C` (centres unmarked) [Compound 72, 2-Hexyldecyl 9-(5-(dimethylamino)-N-(9-((2-hexyldecyl)oxy)-9-oxononyl)pentanamido)-nonadecanoate] here?
**A.** 2.26E+07 pg/g liver

**Q.** And the “Final Product % EE” value ([2]; Table 6)?
**A.** 99%

**Q.** What about the “Final Product PDI” value ([2]; Table 6) of the same molecule?
**A.** 0.00

**Q.** What about the “Final Product Z-avg” value ([2]; Table 6) of the same molecule?
**A.** 79 nm

**Q.** What about the “Parent ionizable lipid remaining” value ([3]; Table 17, female mice (n = 4)) of the same molecule?
**A.** 47.56 nmol/g liver

**Q.** Which results are given for `CCCCCCCCCCC(CCCCCCCC(=O)OCCC(CCCCC)CCCCC)N(CCCCCCCC(=O)OCCC(CCCCC)CCCCC)C(=O)CCCCN(C)C` (centres unmarked) [Compound 73, 3-Pentyloctyl 9-(5-(dimethylamino)-N-(8-oxo-8-((3-pentyloctyl)oxy)octyl)-pentanamido)-nonadecanoate]?
**A.** Luc Activity ([1]; Table 14): 3.64E+07 pg/g liver; Final Product % EE ([2]; Table 7): 99%; Final Product PDI ([2]; Table 7): 0.00; Final Product Z-avg ([2]; Table 7): 82 nm; Parent ionizable lipid remaining in liver, Average [3, 5]: 31.41 nmol/g liver

**Q.** What does the source list for `CCCCCCCCCCC(CCCCCCCC(=O)OCC(CCCCCC)CCCCCCCC)N(CCCCCCCC(=O)OCC(CCCCCC)CCCCCCCC)C(=O)CCCCN(C)C` (centres unmarked) [Compound 74, 2-Hexyldecyl 9-(5-(dimethylamino)-N-(8-((2-hexyldecyl)oxy)-8-oxooctyl)-pentanamido)-nonadecanoate]?
**A.** Luc Activity ([1]; Table 14): 6.77E+07 pg/g liver; Final Product % EE ([2]; Table 7): 99%; Final Product PDI ([2]; Table 7): 0.05; Final Product Z-avg ([2]; Table 7): 89 nm; Parent ionizable lipid remaining in liver, Average [3, 5]: 17.92 nmol/g liver

**Q.** For `CCCCCCCCCCN(C(=O)CCCN(C)C)C(CCCCCCCCC)CCCCCCC(F)C(=O)OCCC(CCCCCC)CCCCCC` (centres unmarked) [Compound 76, 3-Hexylnonyl 9-[N-decyl-4-(dimethylamino)butanamido]-2-fluorooctadecanoate], which “Luc Activity” value ([1]; Table 14) is on record?
**A.** 2.09E+07 pg/g liver

**Q.** And the “Final Product % EE” value ([2]; Table 7)?
**A.** 98%

**Q.** What about the “Final Product PDI” value ([2]; Table 7) of the same molecule?
**A.** 0.07

**Q.** What about the “Final Product Z-avg” value ([2]; Table 7) of the same molecule?
**A.** 69 nm

**Q.** And the “Parent ionizable lipid remaining” value [3, 5]?
**A.** 17.86 nmol/g liver

**Q.** Which “Luc Activity” value ([1]; Table 14) does the source give for `CCCCCCCCCCN(C(=O)CCCN(C)C)C(CCCCCCCCC)CCCCCCC(F)C(=O)OCC(CCCCCC)CCCCCCCC` (centres unmarked) [Compound 77, 2-Hexyldecyl 9-(N-decyl-4-(dimethylamino)butanamido)-2-fluorooctadecanoate] here?
**A.** 3.26E+07 pg/g liver

**Q.** And the “Final Product % EE” value ([2]; Table 7)?
**A.** 99%

**Q.** What about the “Final Product PDI” value ([2]; Table 7) of the same molecule?
**A.** 0.09

**Q.** And the “Final Product Z-avg” value ([2]; Table 7)?
**A.** 63 nm

**Q.** And the “Parent ionizable lipid remaining” value [3, 5]?
**A.** 30.63 nmol/g liver

**Q.** For `CCCCCCCCCCC(CCCCCCC(F)(F)C(=O)OCCC(CCCCC)CCCCC)N(CCCCCCCC(=O)OCCC(CCCCC)CCCCC)C(=O)CCCN(C)C` (centres unmarked) [Compound 87, 3-pentyloctyl 9-[4-(dimethylamino)-N-{8-oxo-8-[(3-pentyloctyl)oxy]octyl}butanamido]-2,2-difluorononadecanoate], which “Luc Activity” value ([1]; Table 14) is on record?
**A.** 1.18E+06 pg/g liver

**Q.** What about the “Final Product % EE” value ([2]; Table 7) of the same molecule?
**A.** 98%

**Q.** And the “Final Product PDI” value ([2]; Table 7)?
**A.** 0.05

**Q.** What about the “Final Product Z-avg” value ([2]; Table 7) of the same molecule?
**A.** 78 nm

**Q.** What about the “Parent ionizable lipid remaining” value [3, 5] of the same molecule?
**A.** 3.23 nmol/g liver

**Q.** What does the source list for `CCCCCCCCCC(CCCCCCC(F)C(=O)OCCC(CCCCC)CCCCC)N(CCCCCCCC(=O)OCCC(CCCCC)CCCCC)C(=O)CCCN(C)C` (centres unmarked) [Compound 88, 3-pentyloctyl 9-[4-(dimethylamino)-N-{8-oxo-8-[(3-pentyloctyl)oxy]octyl}butanamido]-2-fluorooctadecanoate]?
**A.** Luc Activity ([1]; Table 14): 1.64E+07 pg/g liver; Final Product % EE ([2]; Table 7): 99%; Final Product PDI ([2]; Table 7): 0.04; Final Product Z-avg ([2]; Table 7): 72 nm; Parent ionizable lipid remaining in liver, Average [3, 5]: 7.88 nmol/g liver
